Experimental data as given in PubChem BioAssay (NCI).
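A five-concentration, 48-hour dose response in 96-well plates underlies each endpoint, interpolated linearly between surrounding concentrations. TGI: total growth inhibition.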

Legend:
Test in all cases: NCI-60 cell line screen, 48 h
[1] = test system: ACHN renal
[2] = test system: NCI-H460 lung
[3] = test system: M14 melanoma
[4] = test system: MALME-3M melanoma
[5] = test system: HCT-15 colon
[6] = test system: SF-268 CNS
[7] = test system: RXF 393 renal
[8] = test system: A549 NSCLC
[9] = test system: TK-10 renal
[10] = test system: CCRF-CEM leukemia
[11] = test system: COLO 205 colon
[12] = test system: HL-60(TB) leukemia
[13] = test system: SF-295 CNS
[14] = test system: SN12C renal
[15] = test system: OVCAR-4 ovarian
[16] = test system: SK-OV-3 ovarian
[17] = test system: LOX IMVI melanoma
[18] = test system: HOP-62 NSCLC
[19] = test system: BT-549 breast
[20] = test system: MCF7 breast

| SMILES | TGI [1] [µM] | TGI [2] [µM] | TGI [3] [µM] | TGI [4] [µM] | TGI [5] [µM] | TGI [6] [µM] | TGI [7] [µM] | TGI [8] [µM] | TGI [9] [µM] | TGI [10] [µM] | TGI [11] [µM] | TGI [12] [µM] | TGI [13] [µM] | TGI [14] [µM] | TGI [15] [µM] | TGI [16] [µM] | TGI [17] [µM] | TGI [18] [µM] | TGI [19] [µM] | TGI [20] [µM] |
| --- | --- | --- | --- | --- | --- | --- | --- | --- | --- | --- | --- | --- | --- | --- | --- | --- | --- | --- | --- | --- |
| CC1(C)COC(c2cccnc2/C=N/O)=N1 | > 100 | > 100 | > 100 | > 100 | > 100 | > 100 | > 100 | > 100 | > 100 | > 100 | > 100 | > 100 | > 100 | > 100 | > 100 | > 100 | > 100 | > 100 | – | – |
| COc1cccc2c1OC(c1ccc(Cl)cc1)C([N+](=O)[O-])=C2 (stereo unspecified) | 3.28 | 4.92 | 2.57 | 5.32 | 10.8 | 13.9 | 3.32 | 22.5 | 16 | 4 | 5.74 | > 100 | 13.4 | 8.41 | 6.2 | 13.6 | 2.71 | 4.89 | 3.38 | – |
| CCOC(=O)C1(C#N)C(c2ccccc2)CC(O)(c2ccc(OC)cc2)C(C(=O)c2ccc(OC)cc2)C1c1ccccc1 (stereo unspecified) | > 100 | > 100 | > 100 | > 100 | > 100 | > 100 | > 100 | > 100 | > 100 | > 100 | > 100 | > 100 | > 100 | > 100 | > 100 | > 100 | > 100 | > 100 | – | – |
| O=C(NCC(=O)N1CCCC1C(=O)OC(=O)C1CCCN1C(=O)CNC(=O)OCc1ccccc1)OCc1ccccc1 (stereo unspecified) | > 100 | > 100 | 45.7 | 64.8 | > 100 | 89 | 64.5 | > 100 | 49.7 | > 100 | 33.9 | 70.3 | 47.8 | > 100 | > 100 | > 100 | 36.2 | 77 | – | 60 |
| COc1ccc(C2C(Cl)C(=O)N2n2cnc3ccccc3c2=O)cc1 (stereo unspecified) | > 100 | > 100 | 91.6 | > 100 | > 100 | > 100 | > 100 | > 100 | > 100 | – | > 100 | > 100 | > 100 | > 100 | > 100 | > 100 | > 100 | > 100 | – | – |
| Cc1cc(N)c(C)c2c1[nH]c1ccc(O)cc12 | > 100 | > 100 | > 100 | > 100 | > 100 | > 100 | – | > 100 | > 100 | 91.5 | > 100 | > 100 | > 100 | > 100 | > 100 | – | > 100 | > 100 | – | – |
| NC1CC(=O)c2c(Br)csc21 (stereo unspecified) | > 100 | > 100 | > 100 | > 100 | > 100 | > 100 | > 100 | > 100 | 96.7 | > 100 | > 100 | 81.9 | – | > 100 | – | > 100 | – | > 100 | 97.5 | > 100 |
| CC(C)CC1C(=O)NCCC(NC(=O)C(Cc2ccc(OC(C)(C)C)cc2)NC(=O)OC(C)(C)C)C(=O)NC(Cc2ccccc2)C(=O)NC(Cc2ccccc2)NC1=O (stereo unspecified) | 23.3 | 15 | 32.2 | 32 | > 100 | 36.1 | 27.2 | – | 33.8 | 55 | 11.7 | 26.9 | 22.8 | 39.8 | 34.6 | 45.9 | 19.3 | 37.7 | – | 52.3 |
| COc1cc(OC)c(-c2ccc(OCc3ccccc3)c3c(OC)cc(C)cc23)c2c1C(C)=N[C@H](C)C2 | 4.01 | 3.84 | 3.79 | 3.57 | 4 | 3.56 | 4.94 | 4.22 | 3.43 | 4.36 | 4.5 | 4.4 | 3.78 | 3.74 | 4.01 | 4.03 | 3.65 | 4.16 | 7.93 | – |
| COc1ccc(N2C(=O)C(=O)N(c3ccccc3[N+](=O)[O-])C2=S)cc1 | 74.8 | > 100 | – | > 100 | 40.5 | > 100 | 52.8 | > 100 | 65.7 | > 100 | 44.4 | > 100 | > 100 | > 100 | 58.5 | 86.1 | 32.4 | > 100 | – | – |
| CNc1ccc(C(=O)CC(O)CCC(C)C2OC(=O)CC(O)CC(=O)CC(O)CC(O)CC(O)CC(O)CC3(O)CC(O)C(C(=O)NCCN(C)C)C(CC(OC4OC(C)C(O)C(NC(=O)CN5CCN(C)CC5)C4O)/C=C/C=C/C=C/C=C\C=C/C=C/C=C/C2C)O3)cc1 (stereo unspecified) | – | > 100 | > 100 | 8.91 | > 100 | > 100 | > 100 | > 100 | > 100 | – | > 100 | > 100 | > 100 | > 100 | > 100 | > 100 | – | > 100 | > 100 | – |
| COc1cc2cc3c4c(cc(OC)c(OC)c4c2cc1OC)CCN3C(=O)OCCN1CCNCC1 | 28.3 | 26.6 | 27.9 | 31 | 29.2 | 23.3 | 27.9 | 34.4 | 28.3 | 44.6 | 20.9 | 30 | 28.2 | 29.9 | 31.3 | 31.8 | 26.6 | 31.5 | – | – |
| O=c1[nH]c2c(nc1NC13CC4CC(CC(C4)C1)C3)c(=O)oc1ccccc12 | > 100 | > 100 | > 100 | > 100 | > 100 | > 100 | > 100 | > 100 | > 100 | > 100 | > 100 | > 100 | – | > 100 | – | > 100 | > 100 | > 100 | – | – |
| COc1cc(C(Cc2ccccc2)NC(C)=O)oc(=O)c1 (stereo unspecified) | > 100 | > 100 | > 100 | > 100 | > 100 | > 100 | > 100 | > 100 | > 100 | > 100 | > 100 | > 100 | > 100 | > 100 | > 100 | > 100 | > 100 | > 100 | – | – |
| CC(C)(Br)C(Br)CCC1(C2CO2)CO1 (stereo unspecified) | > 5 | – | > 5 | > 5 | > 5 | > 5 | > 5 | > 5 | – | > 5 | > 5 | – | > 5 | > 5 | > 5 | > 5 | – | > 5 | > 5 | > 5 |
| Oc1c(C2=NNC(c3ccc(Cl)cc3Cl)C2)ccc2ccccc12 (stereo unspecified) | > 100 | > 100 | > 100 | > 100 | > 100 | > 100 | > 100 | > 100 | > 100 | 32.8 | > 100 | – | > 100 | > 100 | > 100 | > 100 | – | > 100 | > 100 | > 100 |
| CCCN=C(N)NC#N | > 100 | > 100 | > 100 | > 100 | 38.2 | > 100 | > 100 | > 100 | > 100 | – | 32.9 | > 100 | > 100 | > 100 | > 100 | > 100 | – | > 100 | – | – |
| CCc1cc2c(oc3cc4ccccc4cc32)c(=O)[nH]1 | > 10 | > 10 | > 10 | > 10 | > 10 | > 10 | > 10 | > 10 | > 10 | – | – | > 10 | > 10 | > 10 | > 10 | – | > 10 | – | > 10 | – |
| O=c1[nH]c(=O)n(C2OC(CO)C(O)C2O)cc1NN=NCc1ccccc1 (stereo unspecified) | > 100 | > 100 | > 100 | > 100 | > 100 | > 100 | > 100 | > 100 | > 100 | > 100 | > 100 | > 96.8 | > 100 | > 100 | > 100 | > 100 | > 100 | > 100 | – | – |
| CCCCC1=NNC(=O)C1 | > 100 | > 100 | > 100 | > 100 | > 100 | – | > 100 | > 100 | – | > 100 | > 100 | > 100 | > 100 | > 100 | > 100 | > 100 | – | > 100 | > 100 | > 100 |
